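The compound was tested at five concentrations on cells cultured in 96-well plates, with a 48-hour exposure period. GI50 is the concentration that inhibits growth by half. TGI: concentration producing complete growth inhibition.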 Where a SMILES comes first, the peptide text is derived from it. [ ]: non-standard residue; d: D form. 2Nal = N[CH](Cc1ccc2ccccc2c1)C(=O)O
How the values were obtained:
Test in all cases: DTP human tumour cell line panel, 48 h
[1] = test system: ACHN renal
[2] = test system: TK-10 renal
[3] = test system: NCI-H522 lung
[4] = test system: K-562 leukemia
[5] = test system: RPMI-8226 leukemia
[6] = test system: OVCAR-5 ovarian
[7] = test system: SN12C renal
[8] = test system: UACC-257 melanoma
[9] = test system: SF-295 CNS
[10] = test system: MDA-MB-435

SMILES	TGI [1]	TGI [2]	TGI [3]	TGI [4]	TGI [5]	TGI [6]	TGI [7]	TGI [8]	TGI [9]	GI50 [2]	GI50 [5]	GI50 [6]	GI50 [8]	GI50 [9]	GI50 [1]	GI50 [4]	GI50 [7]	TGI [10]	GI50 [10]	GI50 [3]
CC(=O)ON(C(C)=O)C1C(COC(c2ccccc2)(c2ccccc2)c2ccccc2)OC2OC3(CCCC3)OC21 (centres undefined)	> 100 µM	> 100 µM	6.26 µM	> 100 µM	9.83 µM	> 100 µM	> 100 µM	> 100 µM	> 100 µM	–	–	–	–	–	–	–	–	–	–	–
CC(=O)C1CCC2C3CC=C4CC(SC(=N)N)CCC4(C)C3CCC12C (centres undefined)	–	3.17 µM	–	–	3.33 µM	8.87 µM	–	3.34 µM	2.99 µM	1.69 µM	1.41 µM	2.43 µM	1.69 µM	1.49 µM	–	–	–	–	–	–
Cn1nc(-c2ccccc2)c(C(=O)/C=C/c2ccc(F)cc2)c(N2CCOCC2)c1=O	42.1 µM	97.5 µM	36.4 µM	53.2 µM	23.2 µM	–	> 100 µM	–	32.4 µM	–	–	–	–	–	–	–	–	–	–	–
OC1CCC[C@@H]1Sc1ccccc1 (some centres undefined)	> 100 µM	> 100 µM	–	> 100 µM	> 100 µM	–	> 100 µM	> 100 µM	> 100 µM	–	–	–	–	–	–	–	–	–	–	–
CC(C)C(NC(=O)C(CCCCN)NC(=O)C(Cc1c[nH]c2ccccc12)NC(=O)C(Cc1ccc(O)cc1)NC(=O)C(CS)NC(=O)C(N)Cc1ccc2ccccc2c1)C(=O)NC(CS)C(=O)NC(C(N)=O)C(C)O (centres undefined) (H-[2Nal]CYWKVCT-NH2; configuration not given here)	> 100 µM	–	> 12.5 µM	> 100 µM	> 100 µM	> 12.5 µM	> 100 µM	> 100 µM	> 100 µM	–	> 100 µM	–	> 100 µM	> 100 µM	> 100 µM	> 100 µM	> 100 µM	> 12.5 µM	–	–
COC(=O)C1=C(C(=O)OC)C2OC1c1cc3ccccc3cc12	3.03 µM	11.3 µM	2.9 µM	–	5.41 µM	11.3 µM	30.8 µM	17.5 µM	38.3 µM	–	–	–	–	–	–	–	–	18 µM	–	–
N#Cc1cc(NC(=O)c2ccccc2)c(=O)n2c1[nH]c1ccccc12	> 100 µM	89.2 µM	42 µM	> 100 µM	38.3 µM	–	> 100 µM	> 100 µM	> 100 µM	–	–	–	–	–	–	–	–	–	–	–
O=C1C2ON3c4ccccc4C(=O)C3(c3ccccc3)C2C(=O)N1c1ccccc1 (centres undefined)	> 100 µM	–	> 100 µM	> 100 µM	> 100 µM	–	> 100 µM	> 100 µM	> 100 µM	–	–	–	–	–	–	–	–	–	–	–
COC(=O)C1=C(O)[C@H](C(=O)OC)[C@]2(O)[C@@H](C(=O)OC)[C@H]1C[C@@H](c1ccc(OC(=O)/C=C/c3ccco3)cc1)[C@@H]2C(=O)OC	28.7 µM	> 100 µM	–	> 100 µM	57.5 µM	43.3 µM	52.3 µM	> 100 µM	65.2 µM	47.1 µM	0.293 µM	19.1 µM	65.5 µM	19.6 µM	14.4 µM	19.7 µM	22.4 µM	66.8 µM	21.7 µM	–
NNC(=O)N/N=C1\C(=O)N(c2nccs2)C(=O)C(=O)C1c1nc2ccccc2s1 (centres undefined)	> 100 µM	> 100 µM	–	–	> 100 µM	> 100 µM	> 100 µM	> 100 µM	> 100 µM	–	–	–	–	–	–	–	–	–	–	–
CCc1nc2cc(/C=C/C(=O)NO)ccc2c(=O)n1CCc1ccc(F)cc1	3.27 µM	4.89 µM	4.06 µM	> 100 µM	> 100 µM	> 100 µM	–	5.92 µM	3.61 µM	1.42 µM	0.99 µM	2.19 µM	2.24 µM	1.87 µM	1.5 µM	2.37 µM	–	4.38 µM	1.7 µM	1.34 µM
C#CCN(N=O)C(=O)NCCCC(NC(C)=O)C(=O)NCc1ccccc1 (centres undefined)	> 100 µM	> 100 µM	> 100 µM	> 100 µM	> 100 µM	> 100 µM	> 100 µM	> 100 µM	> 100 µM	–	–	–	–	–	–	–	–	–	–	–
C=C1C(=O)OC2C1C(OC(=O)/C(C)=C\C)CC1(CO1)C1C(O)C=C(C)C21O (centres undefined)	13.9 µM	9.35 µM	2.3 µM	> 100 µM	22.2 µM	34.3 µM	14.5 µM	21.7 µM	41.7 µM	–	–	–	–	–	–	–	–	–	–	–
CCOC(=O)C1SC(=Nc2ccc(Cl)cc2C)N=C1C (centres undefined)	57.2 µM	65.2 µM	27 µM	51.3 µM	–	45.9 µM	41.4 µM	51.9 µM	52.9 µM	–	–	–	–	–	–	–	–	–	–	–
CN(C)CCNC(=O)c1cccc2ncc(-c3ccccc3)nc12	> 94.3 µM	34.7 µM	21.1 µM	61.9 µM	–	30.5 µM	42.2 µM	31.3 µM	58.5 µM	–	–	–	–	–	–	–	–	–	–	–
Cc1cc(C)nc(NS(=O)(=O)c2ccc(NC(=O)c3ccc(Cl)c4c(Nc5ccc(S(=O)(=O)N=C(N)N)cc5)c5ccccc5nc34)cc2)n1	> 100 µM	> 100 µM	36.1 µM	> 100 µM	> 100 µM	> 100 µM	68.7 µM	> 100 µM	> 100 µM	–	–	–	–	–	–	–	–	–	–	–
CN(C)CCC1(C2=CCCC2)CC/C(=C\c2ccccc2Cl)C1=O (centres undefined)	31.1 µM	33.5 µM	–	14.5 µM	> 100 µM	29.1 µM	26.7 µM	28.4 µM	27.9 µM	–	–	–	–	–	–	–	–	–	–	–
CCC[CH2][Sn]([CH2]CCC)([O]C(=O)c1cc(F)cc(F)c1)[O][Sn]([CH2]CCC)([CH2]CCC)[O]C(=O)c1cc(F)cc(F)c1	2.83 µM	2.72 µM	0.185 µM	1.12 µM	–	3.43 µM	2.76 µM	2.34 µM	3.06 µM	1.41 µM	–	1.92 µM	1.11 µM	1.67 µM	1.51 µM	0.256 µM	1.41 µM	–	–	0.0538 µM
COc1ccc(NC(=O)CCc2cc(C(C)(C)C)n[nH]2)cc1	> 100 µM	> 100 µM	> 100 µM	> 100 µM	> 100 µM	> 100 µM	> 100 µM	> 100 µM	> 100 µM	–	–	–	–	–	–	–	–	–	–	–
C/C(CCn1[nH]c(=O)ccc1=O)=N\Nc1ccc([N+](=O)[O-])cc1[N+](=O)[O-]	> 100 µM	> 100 µM	–	> 100 µM	> 100 µM	> 100 µM	> 100 µM	> 100 µM	> 100 µM	–	–	–	–	–	–	–	–	–	–	–

Source: PubChem BioAssay (NCI)
